# According to US9695155B2, “Herbicidal substituted pyrimidinyloxy benzene compounds” (E. I. DU PONT DE NEMOURS AND COMPANY, priority 2013, dated 2017):
# Experiments:
# [1] = test system: morningglory; assay: Test A postemergence; format: in vivo, Ipomoea spp.
# Outline: (§1)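 Visual 0–100 rating (100 = complete control) taken about 10 d post-treatment relative to untreated checks. Preemergence: directed soil spray on sown loam/sand pots. Postemergence: seedlings 2–10 cm, 1–2 leaf. Non-phytotoxic solvent formulation with surfactant.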
# [2] = test system: wheat; assay: Test A preemergence; format: in vivo, Triticum aestivum; conditions: for Plant response rating, Wheat: 125 g ai/ha, 0 to 100 scale where 0 is no effect and 100 is complete control
# Outline: as §1
# [3] = test system: waterhemp; assay: Test C preemergence; format: in vivo, Amaranthus rudis
# Outline: (§2)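 Whole-plant greenhouse test with surfactant-containing solvent formulation, applied preemergence to sown loam–sand pots or postemergence to 2–18 cm plants. Scored by eye 13 to 15 days on, 0–100 scale.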
# [4] = test system: johnsongrass; assay: Test C postemergence; format: in vivo, Sorghum halepense
# Outline: as §2
# [5] = test system: giant foxtail; assay: Test A postemergence; format: in vivo, Setaria faberii
# Outline: as §1
# [6] = test system: ragweed; assay: Test C postemergence; format: in vivo, Ambrosia elatior
# Outline: as §2
# [7] = test system: giant foxtail; assay: Test C preemergence; format: in vivo, Setaria faberii
# Outline: as §2
# [8] = test system: oilseed rape; assay: Test C preemergence; format: in vivo, Brassica napus
# Outline: as §2
# [9] = test system: corn; assay: Test C preemergence; format: in vivo, Zea mays
# Outline: as §2
# [10] = test system: galium; assay: Test C postemergence; format: in vivo, Galium aparine
# Outline: as §2
# [11] = test system: Heteranthera limosa; assay: Test B flooded paddy test; format: in vivo; conditions: Flood, 250 g ai/ha, 0 to 100 scale where 0 is no effect and 100 is complete control
# Outline: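 Flooded to 3 cm at the 2-leaf stage, pots received compound through the paddy water and were kept at that depth under greenhouse conditions. After 13–15 days, effect was rated by eye relative to controls, 0 = none and 100 = complete control.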
# [12] = 125 g ai/ha, 0 to 100 scale where 0 is no effect and 100 is complete control
# [13] = 500 g ai/ha, 0 to 100 scale where 0 is no effect and 100 is complete control
# [14] = 62 g ai/ha, preemergence, scale 0 (no effect) to 100 (complete control)
# [15] = 125 g ai/ha, preemergence, scale 0 (no effect) to 100 (complete control)
# [16] = 250 g ai/ha, preemergence, scale 0 (no effect) to 100 (complete control)
# [17] = Preemergence, 31 g ai/ha, scale 0 to 100, 0 no effect, 100 complete control
# [18] = Postemergence, 31 g ai/ha, scale 0 to 100 (0 no effect, 100 complete control), 13 to 15 days
# [19] = Postemergence, 62 g ai/ha, scale 0 to 100 (0 no effect, 100 complete control)
structure (smiles),measurement,setting,value
"N#Cc1cccc(Oc2ncc(Br)cn2)c1-n1cc(C(F)(F)F)cn1 [Compound 59, 3-[(5-bromo-2-pyrimidinyl)oxy]-2-[4-(trifluoromethyl)-1H-pyrazol-1-yl]benzonitrile]",pest or weed control at 125 g/ha,"[1]; Ipomoea, post-emergence, 240 h, 125 g ai/ha, 0 to 100 scale where 0 is no effect and 100 is complete control, read-out: Plant response rating, Morningglory",90%
same,pest or weed control at 500 g/ha,"[1]; Ipomoea, post-emergence, 240 h, 500 g ai/ha, 0 to 100 scale, 0 no effect, 100 complete control, read-out: Plant response rating Morningglory",100%
same,"Plant response rating, Wheat",[2],20
same,plant injury at 500 g/ha,"[2]; Triticum aestivum, pre-emergence, 240 h, 500 g ai/ha, 0 to 100 scale, 0 no effect, 100 complete control, approx. 10 days, read-out: Wheat plant response rating",40%
same,pest or weed control at 62 g/ha,"[3]; Amaranthus tuberculatus, pre-emergence, 62 g ai/ha, preemergence, scale 0 (no effect) to 100 (complete control), read-out: Waterhemp plant response rating",100%
same,pest or weed control at 125 g/ha,"[3]; Amaranthus tuberculatus, pre-emergence, 125 g ai/ha, preemergence, scale 0 (no effect) to 100 (complete control), read-out: Waterhemp plant response rating",100%
same,pest or weed control at 250 g/ha,"[3]; Amaranthus tuberculatus, pre-emergence, 250 g ai/ha, preemergence, scale 0 (no effect) to 100 (complete control), read-out: Waterhemp plant response rating",100%
same,pest or weed control at 31 g/ha,"[3]; Amaranthus tuberculatus, pre-emergence, Preemergence, 31 g ai/ha, scale 0 to 100, 0 no effect, 100 complete control, read-out: Plant response rating, Waterhemp",100%
same,pest or weed control at 125 g/ha,"[4]; Sorghum halepense, post-emergence, 125 g ai/ha, postemergence, read-out: Plant response rating (0 to 100), Johnsongrass",35%
same,pest or weed control at 250 g/ha,"[4]; Sorghum halepense, post-emergence, 250 g ai/ha, postemergence, read-out: Plant response rating (0 to 100), Johnsongrass",85%
same,pest or weed control at 31 g/ha,"[4]; Sorghum halepense, post-emergence, Postemergence, 31 g ai/ha, scale 0 to 100 (0 no effect, 100 complete control), 13 to 15 days, read-out: Plant response rating, Johnsongrass",15%
same,pest or weed control at 62 g/ha,"[4]; Sorghum halepense, post-emergence, Postemergence, 62 g ai/ha, scale 0 to 100 (0 no effect, 100 complete control), read-out: Plant response rating, Johnsongrass",35%
same,pest or weed control at 125 g/ha,"[5]; Setaria faberi, post-emergence, 240 h, 125 g ai/ha, 0 to 100 scale where 0 is no effect and 100 is complete control, read-out: Plant response rating, Foxtail, Giant",100%
same,pest or weed control at 500 g/ha,"[5]; Setaria faberi, post-emergence, 240 h, 500 g ai/ha, 0 to 100 scale, 0 no effect, 100 complete control, read-out: Plant response rating Foxtail, Giant",100%
same,pest or weed control at 125 g/ha,"[6]; Ambrosia artemisiifolia, post-emergence, 125 g ai/ha, postemergence, read-out: Plant response rating (0 to 100), Ragweed",25%
same,pest or weed control at 250 g/ha,"[6]; Ambrosia artemisiifolia, post-emergence, 250 g ai/ha, postemergence, read-out: Plant response rating (0 to 100), Ragweed",55%
same,pest or weed control at 31 g/ha,"[6]; Ambrosia artemisiifolia, post-emergence, Postemergence, 31 g ai/ha, scale 0 to 100 (0 no effect, 100 complete control), 13 to 15 days, read-out: Plant response rating, Ragweed",10%
same,pest or weed control at 62 g/ha,"[6]; Ambrosia artemisiifolia, post-emergence, Postemergence, 62 g ai/ha, scale 0 to 100 (0 no effect, 100 complete control), read-out: Plant response rating, Ragweed",25%
same,pest or weed control at 62 g/ha,"[7]; Setaria faberi, pre-emergence, 62 g ai/ha, preemergence, scale 0 (no effect) to 100 (complete control), read-out: Foxtail, Giant plant response rating",98%
same,pest or weed control at 125 g/ha,"[7]; Setaria faberi, pre-emergence, 125 g ai/ha, preemergence, scale 0 (no effect) to 100 (complete control), read-out: Foxtail, Giant plant response rating",100%
same,pest or weed control at 250 g/ha,"[7]; Setaria faberi, pre-emergence, 250 g ai/ha, preemergence, scale 0 (no effect) to 100 (complete control), read-out: Foxtail, Giant plant response rating",100%
same,pest or weed control at 31 g/ha,"[7]; Setaria faberi, pre-emergence, Preemergence, 31 g ai/ha, scale 0 to 100, 0 no effect, 100 complete control, read-out: Plant response rating, Foxtail, Giant",95%
same,plant injury at 62 g/ha,"[8]; Brassica napus, pre-emergence, 62 g ai/ha, preemergence, scale 0 (no effect) to 100 (complete control), read-out: Oilseed Rape plant response rating",100%
same,plant injury at 125 g/ha,"[8]; Brassica napus, pre-emergence, 125 g ai/ha, preemergence, scale 0 (no effect) to 100 (complete control), read-out: Oilseed Rape plant response rating",100%
same,plant injury at 250 g/ha,"[8]; Brassica napus, pre-emergence, 250 g ai/ha, preemergence, scale 0 (no effect) to 100 (complete control), read-out: Oilseed Rape plant response rating",100%
same,plant injury at 31 g/ha,"[8]; Brassica napus, pre-emergence, Preemergence, 31 g ai/ha, scale 0 to 100, 0 no effect, 100 complete control, read-out: Plant response rating, Oilseed Rape",90%
same,plant injury at 62 g/ha,"[9]; Zea mays, pre-emergence, 62 g ai/ha, preemergence, scale 0 (no effect) to 100 (complete control), read-out: Corn plant response rating",55%
same,plant injury at 125 g/ha,"[9]; Zea mays, pre-emergence, 125 g ai/ha, preemergence, scale 0 (no effect) to 100 (complete control), read-out: Corn plant response rating",75%
same,plant injury at 250 g/ha,"[9]; Zea mays, pre-emergence, 250 g ai/ha, preemergence, scale 0 (no effect) to 100 (complete control), read-out: Corn plant response rating",90%
same,pest or weed control at 125 g/ha,"[10]; Galium, post-emergence, 125 g ai/ha, postemergence, read-out: Plant response rating (0 to 100), Galium",90%
same,pest or weed control at 250 g/ha,"[10]; Galium, post-emergence, 250 g ai/ha, postemergence, read-out: Plant response rating (0 to 100), Galium",90%
same,pest or weed control at 31 g/ha,"[10]; Galium, post-emergence, Postemergence, 31 g ai/ha, scale 0 to 100 (0 no effect, 100 complete control), 13 to 15 days, read-out: Plant response rating, Galium",65%
same,pest or weed control at 62 g/ha,"[10]; Galium, post-emergence, Postemergence, 62 g ai/ha, scale 0 to 100 (0 no effect, 100 complete control), read-out: Plant response rating, Galium",80%
same,pest or weed control at 250 g/ha,"[11]; Heteranthera limosa, read-out: Plant response rating, Ducksalad",80%
N#Cc1cccc(Oc2ncc(F)cn2)c1-n1cc(Cl)cn1 [Compound 73],"Plant response rating, Morningglory",[1]; [12],90
same,"Plant response rating, Morningglory",[1]; [13],100
same,"Plant response rating, Wheat",[2],0
same,Wheat plant response rating,"[2]; 500 g ai/ha, 0 to 100 scale, 0 no effect, 100 complete control, approx. 10 days",80
same,Waterhemp plant response rating,[3]; [14],100
same,Waterhemp plant response rating,[3]; [15],100
same,Waterhemp plant response rating,[3]; [16],100
same,"Plant response rating, Waterhemp",[3]; [17],100
same,"Plant response rating (0 to 100), Johnsongrass","[4]; 125 g ai/ha, postemergence",5
same,"Plant response rating (0 to 100), Johnsongrass","[4]; 250 g ai/ha, postemergence",25
same,"Plant response rating, Johnsongrass",[4]; [18],0
same,"Plant response rating, Johnsongrass",[4]; [19],5
same,"Plant response rating, Foxtail, Giant",[5]; [12],90
same,"Plant response rating, Foxtail, Giant",[5]; [13],100
same,"Plant response rating (0 to 100), Ragweed","[6]; 125 g ai/ha, postemergence",50
same,"Plant response rating (0 to 100), Ragweed","[6]; 250 g ai/ha, postemergence",65
same,"Plant response rating, Ragweed",[6]; [18],30
same,"Plant response rating, Ragweed",[6]; [19],35
same,"Foxtail, Giant plant response rating",[7]; [14],100
same,"Foxtail, Giant plant response rating",[7]; [15],100
same,"Foxtail, Giant plant response rating",[7]; [16],100
same,"Plant response rating, Foxtail, Giant",[7]; [17],85
same,Oilseed Rape plant response rating,[8]; [14],95
same,Oilseed Rape plant response rating,[8]; [15],100
same,Oilseed Rape plant response rating,[8]; [16],100
same,"Plant response rating, Oilseed Rape",[8]; [17],85
same,Corn plant response rating,[9]; [14],0
same,Corn plant response rating,[9]; [15],5
same,Corn plant response rating,[9]; [16],70
same,"Plant response rating, Corn",[9]; [17],0
same,"Plant response rating (0 to 100), Galium","[10]; 125 g ai/ha, postemergence",70
same,"Plant response rating (0 to 100), Galium","[10]; 250 g ai/ha, postemergence",70
same,"Plant response rating, Galium",[10]; [18],40
same,"Plant response rating, Galium",[10]; [19],55
same,"Plant response rating, Ducksalad",[11],70
